Drawing on patent US7855211B2, “Protein kinase inhibitors” (Eli Lilly and Company, priority 2008, dated 2010), this text covers bioavailability and IC50 for two molecules.

The nature of data set [1]: Rat Oral Bioavailability Assay. The class given is in vivo. Particulars: plasma, 1 mg/kg, male Sprague Dawley rats, oral suspension vs intravenous, read-out: Fraction bioavailable relative to the intravenous dose (% F). The method, then:
Male Sprague Dawley rats (body weight range 250-320 g) with indwelling femoral arterial cannulae are obtained from Charles River, Wilmington, Mass. 01887, USA. Test compound is administered intravenously in solution (2 mL/kg) in: 10% N-methyl pyrollidone/18% Captisol® in 22.5 mM phosphate buffer, pH 3. The final drug concentration is 0.25 mg/mL (free base equivalents). Blood samples are obtained using the indwelling cannula over 24 h. The animals are then administered an oral dose of test compound in suspension (5 mL/kg) in 1% w/v hydroxyethylcellulose/0.25% v/v polysorbate 80/0.05% v/v antifoam in purified water. The final drug concentration is 0.2 mg/mL (free base equivalents). […]
An internal standard compound (for normalisation) in acetonitrile/methanol (1:1, v/v) is added to samples of plasma to precipitate protein and the samples are centrifuged prior to analysis. The supernatants are analysed by injection and rapid gradient elution on a Javelin Betasil C18 column (20×2.1 mm cartridge, Mobile phase A: Water/1 M ammonium bicarbonate, 2000:10 v/v, Mobile Phase B: MeOH/1 M ammonium bicarbonate, 2000:10 v/v). The eluted analytes are detected by LC-MS-MS analysis using a Sciex API 4000 triple quadrupole mass spectrometer. Concentrations of compounds in plasma are determined from standards prepared under identical conditions. […]

Data set [2] has as its target T1, CDK4 (Homo sapiens, UniProt P11802).
T1 construct: purchased Proqinase 0142-0373-1
As to the kind of experiment: CDK4 Inhibition Assay. The class given is biochemical. Particulars: CDK4 kinase, 33P-ATP, CTRF substrate. How it is done:
All ligands, radiolabels, solvents, and reagents employed in the following assays are readily available from commercial sources, or can be readily synthesized by one skilled in the art.
10 μL of test compound in 20% DMSO, 20 μL of adenosine 5′-triphosphate (ATP) and C-Terminal Retinoblastoma Fragment (CTRF) (Upstate cat # 12-439) solution, and 10 μL of enzyme solution are mixed in a 96 well plate. The ATP and CRTF solution is prepared from a mixture of 40 μM ATP, 0.16 μCi [^33P] ATP and 1 μM CTRF diluted in kinase buffer of 68 mM 4-(2-hydroxyethyl)-1-piperazineethanesulfonic acid (HEPES) pH 7.4, 6.72 mM MgCl2, 6.72 mM dithiothreitol (DTT), and 0.013% TRITON™ X-100. The enzyme solution is prepared from 8 ng CDK4 enzyme (Proqinase cat # 0142-0373-1) diluted in the kinase buffer described above. Test compounds are serially diluted 1:3 in 20% DMSO to create a 10 point curve at a starting concentration of 20 μM. 20% DMSO buffer alone without added test compound is employed as a control, 500 mM ethylene diamine tetraacetic acid (EDTA) is used to determine the level of background ^33P in the absence of enzyme activity. Reagents are mixed and incubated for 90 min at 20° C. […] The wells are washed four times with 0.5% H3PO4 and the radioactivity incorporated is determined with a microplate scintillation counter (Microbeta Trilux, Wallac). […]

For data set [3], the target named is Pim-1 (Homo sapiens, UniProt P11309). Kind of data set: Assay for Inhibition of PIM1 Kinase. Format: biochemical. How it is done: Pim-1 (human, 0.46 nM final concentration) is incubated with 8 mM MOPS pH 7.0, 0.2 mM EDTA, 100 μM of an appropriate substrate peptide (see Pim-1 kinase inhibition assay protocol as described in Chen, L. S. et al. (2009) Blood, DOI: 10.1182/blood-2009-03-212852), 10 mM MgAcetate and [γ-^33P-ATP] (specific activity approx. 500 cpm/pmol, concentration as required). The reaction is initiated by the addition of the MgATP mix and then incubated for 40 minutes at room temperature. The reaction is stopped by the addition of 3% phosphoric acid solution. 10 μL of the reaction is then spotted onto a P30 filtermat and washed three times for 5 minutes in 75 mM phosphoric acid and once in methanol prior to drying and scintillation counting. For compound inhibition testing, compounds provided as 10 mM stocks in 100% DMSO are diluted 1:10 in 100% DMSO to give a 50× stock of the top concentration of the curve. The 50× stock is then serially diluted 1:3 in 100% DMSO to create a 10 point concentration-response curve and diluted 1:50 (20 μM to 0.001 μM final in 2% final DMSO concentration) in the reaction mixture to determine compound activity. […] The percent inhibition determined from the controls on each plate and ten-point compound concentration data were then fit to a four-parameter logistic equation using ACTIVITYBASE 4.0. […]
Chain of Pim-1 (P11309 whole entry): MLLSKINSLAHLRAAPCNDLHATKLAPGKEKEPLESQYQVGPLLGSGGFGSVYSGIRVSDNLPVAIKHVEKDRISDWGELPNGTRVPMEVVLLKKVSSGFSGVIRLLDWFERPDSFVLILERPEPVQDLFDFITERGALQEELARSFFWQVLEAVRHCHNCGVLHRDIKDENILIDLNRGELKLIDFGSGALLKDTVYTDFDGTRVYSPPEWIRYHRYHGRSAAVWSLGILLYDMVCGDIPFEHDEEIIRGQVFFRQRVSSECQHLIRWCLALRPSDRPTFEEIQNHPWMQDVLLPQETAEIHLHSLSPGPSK

Data set [4] has as its system phosphorylation of Retinoblastoma Protein (pRb). As to the kind of experiment: Inhibition of Phosphorylation of Retinoblastoma Protein (pRb) in COLO 205 cells. Particulars: Homo sapiens, 24 h exposure, read-out: IC50 (% phosphoRB positive). Format: cell-based. How it is done:
COLO 205 Cells from the American Type Culture Collection (ATCC) are plated at 2000 cells/well in 96 well […] BIOCOAT™ plates, and are incubated in RPMI 1640 medium (e.g., GIBCO, catalog #52400-025) with 10% Fetal Bovine Serum (FBS e.g. Gibco cat #11000-144) and 1% sodium pyruvate (Gibco catalog #11360-070) in 37° C., 5% CO2 for 24 h. Cells are treated by adding test compound to the medium, dosing at 10 points of 1:3 dilutions across the range of 20 μM to 0.001 μM, and with final DMSO concentration at 0.25%. After 24 h exposure to the compounds, cells are fixed with the PREFER™ fixative [Anatech LTD., Cat # 414] for 30 min at RT, then are permeabilized with 0.1% TRITON® X100 in phosphate buffered saline (PBS) solution for 15 min at RT. […] Fluorescence plates are scanned with ACUMEN EXPLORER™ [Laser-scanning fluorescence microplate cytometer (comprising of 488 nm argon ion laser excitation and multiple photomultiplier tube detection), manufactured by TTP LABTECH LTD] to measure phosphorylation of Rb protein and DNA content. […] Assay outputs are percentage of each identified subpopulations, % phosphoRB positive, % 2 N and % 4 N. The IC50 and EC50 values are determined by curve fitting to a four parameter logistic for each output using ACTIVITY BASE™. […]

T1 sequence (P11802 whole entry): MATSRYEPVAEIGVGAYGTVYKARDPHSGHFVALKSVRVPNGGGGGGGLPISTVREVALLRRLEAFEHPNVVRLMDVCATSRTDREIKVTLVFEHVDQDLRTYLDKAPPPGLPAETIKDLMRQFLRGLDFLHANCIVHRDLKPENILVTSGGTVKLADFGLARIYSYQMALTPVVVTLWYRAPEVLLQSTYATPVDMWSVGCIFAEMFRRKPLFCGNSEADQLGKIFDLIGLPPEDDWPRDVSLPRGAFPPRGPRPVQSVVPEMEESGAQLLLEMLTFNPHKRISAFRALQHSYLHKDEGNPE
T1 sequence (P30281 whole entry partner): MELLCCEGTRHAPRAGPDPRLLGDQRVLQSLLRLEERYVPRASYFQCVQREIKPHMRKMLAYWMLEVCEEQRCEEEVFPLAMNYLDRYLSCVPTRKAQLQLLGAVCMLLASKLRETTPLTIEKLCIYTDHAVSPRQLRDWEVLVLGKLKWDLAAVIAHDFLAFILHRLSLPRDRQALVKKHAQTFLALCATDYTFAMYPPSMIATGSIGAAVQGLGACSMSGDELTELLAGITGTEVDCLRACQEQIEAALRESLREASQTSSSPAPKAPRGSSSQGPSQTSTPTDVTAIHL

With `CS(=O)(=O)O.Cc1nc2ccc(-c3nc(Nc4ccc(C5CCN(C(C)C)CC5)cn4)ncc3F)cc2n1C1CCCC1` [Example 22, [4-(3-Cyclopentyl-2-methyl-3H-benzoimidazol-5-yl)-5-fluoro-pyrimidin-2-yl]-(1′-isopropyl-1′,2′,3′,4′,5′,6′-hexahydro-[3,4′]bipyridinyl-6-yl)-amine methanesulfonate], the bioavailability in data set [1] worked out at 48.5%.

Usually IC50 stands for the concentration at which inhibition is half-maximal. Turning to `CCN1CCC(Cc2ccc(Nc3ncc(F)c(-c4cc(F)c5nc(C)n(C(C)C)c5c4)n3)nc2C)CC1` [Example 25, [5-(1-Ethyl-piperidin-4-ylmethyl)-6-methyl-pyridin-2-yl]-[5-fluoro-4-(7-fluoro-3-isopropyl-2-methyl-3H-benzoimidazol-5-yl)-pyrimidin-2-yl]-amine methanesulfonate], the IC50 is 3 nM in data set [2], 3 nM in data set [3] and roughly 100 nM in data set [4].
